In patent US12606520B2, “Calpain-2 inhibitor compounds and methods of treatment” (WESTERN UNIVERSITY OF HEALTH SCIENCES, priority 2020, dated 2026):

Assays:
[1] = test system: TUNEL-positive cells; experiment: TUNEL staining of brain 24 h after TBI in WT mice; assay type: in vivo
Protocol: Quantification of TUNEL staining 24 h after TBI plus i.p. injection of NA112 at 0.1 or 1.0 mg/kg. Total numbers of TUNEL-positive cells in 3 coronal sections (Bregma 0.50, −0.58, −1.58 mm) of each brain were counted and averaged. Results are means S.E.M. of 3 animals. * p<0.05 vs Vehicle. One-way ANOVA followed by Bonferroni test.
Vehicle (control liposomes) or 0.1 or 1 mg/kg of NA112 dissolved in liposomal formulation was injected 1 h after TBI in WT mice. Animals were sacrificed 24 h later and brains were stained with TUNEL staining to analyze the extent of cell death.
The number of TUNEL-positive cells in images similar to those shown in FIG. 12 was quantified (FIG. 13). Results in FIG. 13 are Means±S.E.M. of 3 different animals.
Quantification of TUNEL staining 24 h after TBI plus i.p. injection of WT mice with NA184 at indicated doses 1 h after TBI. Total numbers of TUNEL-positive cells in 3 coronal sections (Bregma 0.50, −0.58, −1.58 mm) of each brain were counted and averaged. Results are means±S.E.M. of 3-6 animals. * p<0.05, ** p<0.01, vs Vehicle. One-way ANOVA followed by Bonferroni test (FIG. 20).

[2] = Stability in mouse plasma at 37° C. (residual inhibition of purified human calpain-2); assay type: in vitro ADME; conditions: mouse, mouse plasma, B-cyclodextrin formulation, 0.2 mM, read-out: Estimated half-life in mouse plasma (converted)
Protocol: NA112 (C12, 0.2 mM) was incubated with mouse plasma at 37° C. for the indicated periods of time. Aliquots were taken and the degree of inhibition of purified human calpain-2 was measured. Results were normalized to the maximum degree of inhibition (100%) measured at to.
NA112A in β-cyclodextrin formulation (10 μM) was incubated in mouse plasma at 37° C. for the indicated periods of time. Aliquots were taken and the degree of inhibition of purified human calpain-2 was measured. Results were normalized to the maximum degree of inhibition (50%) measured at t0.

[3] = biological target: T1, calpain-1 (Rattus norvegicus, UniProt P97571); experiment: Calpain-1 activity in brain after TBI in rats; assay type: in vivo; conditions: 1 mg/kg i.p. at 1 h and 8 h after TBI, 24 h after TBI
T1 construct: from tissue; host or cells: rat brain after TBI
T1 sequence (P97571 1-713): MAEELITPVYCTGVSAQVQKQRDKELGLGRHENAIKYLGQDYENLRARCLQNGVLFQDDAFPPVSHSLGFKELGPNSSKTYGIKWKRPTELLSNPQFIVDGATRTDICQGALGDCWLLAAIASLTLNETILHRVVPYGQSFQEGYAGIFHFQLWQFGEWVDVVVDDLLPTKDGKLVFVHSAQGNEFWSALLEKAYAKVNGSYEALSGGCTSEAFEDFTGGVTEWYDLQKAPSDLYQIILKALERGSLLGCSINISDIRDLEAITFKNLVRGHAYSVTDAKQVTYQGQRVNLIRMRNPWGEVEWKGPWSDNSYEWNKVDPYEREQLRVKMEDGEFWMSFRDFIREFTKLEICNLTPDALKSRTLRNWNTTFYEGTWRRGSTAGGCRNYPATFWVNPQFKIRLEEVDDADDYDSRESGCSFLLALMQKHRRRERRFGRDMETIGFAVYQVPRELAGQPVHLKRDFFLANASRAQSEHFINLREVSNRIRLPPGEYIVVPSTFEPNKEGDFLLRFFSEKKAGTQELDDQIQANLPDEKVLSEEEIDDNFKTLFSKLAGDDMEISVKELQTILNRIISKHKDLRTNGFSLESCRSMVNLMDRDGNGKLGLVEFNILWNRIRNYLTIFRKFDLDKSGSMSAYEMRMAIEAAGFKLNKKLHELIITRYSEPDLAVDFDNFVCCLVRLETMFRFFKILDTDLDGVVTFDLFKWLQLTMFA
T1 sequence (Q64537 1-270 partner): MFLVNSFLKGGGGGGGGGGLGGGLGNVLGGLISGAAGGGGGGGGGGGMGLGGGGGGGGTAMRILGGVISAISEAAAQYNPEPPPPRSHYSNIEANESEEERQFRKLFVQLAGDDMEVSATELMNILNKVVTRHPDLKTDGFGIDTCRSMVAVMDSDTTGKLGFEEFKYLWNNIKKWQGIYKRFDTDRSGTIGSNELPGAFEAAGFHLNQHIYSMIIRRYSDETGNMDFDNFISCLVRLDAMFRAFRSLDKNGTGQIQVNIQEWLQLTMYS
Protocol: We also performed the same model of TBI in male and female mice and in male and female rats. In all cases, NA184 was injected i.p. at 1 mg/kg. For the rat experiments, NA184 was injected twice at 1 h and 8 h after TBI. Animals were sacrificed 24 h after TBI and calpain activity was assayed in brain and cell death was analyzed in cortex. […] In addition, there was a highly significant correlation between calpain-2 activity and cell death in rats (FIG. 23). R^2 was 0.61 and p<0.005.

Row | SMILES | TUNEL staining ([1]; liposomal formulation, 0.1 or 1 mg/kg 1 h after TBI, 24 h later) | half-life at 0.2 mM [2] | Calpain-1 inhibition in brain, male and female rats [3] | ED50 ([1]; Mus musculus, ip, i.p. 1 h after TBI, DMSO solution, TUNEL 24 h after TBI)
1 | CCC(NC(=O)[C@H](CC(C)C)NC(=O)NCc1ccccc1)C(=O)C(=O)NCc1cc(OC)cc(OC)c1 (mixture of isomers) [NA112, (2S)-2-(3-benzylureido)-N-(1-((3,5-dimethoxybenzyl)amino)-1,2-dioxopentan-3-yl)-4-methylpentanamide] | decrease in TUNEL staining | 17 h | – | –
2 | CCC(NC(=O)[C@H](CC(C)C)NC(=O)NCc1ccccc1)C(=O)C(=O)NCc1cccc(Cl)c1OC (stereo partly drawn) [NA184, (2S)-2-(3-benzylureido)-N-(1-((3-chloro-2-methoxybenzyl)amino)-1,2-dioxopentan-3-yl)-4-methylpentanamide] | – | – | not calpain-1 | ~0.13 mg/kg
